In patent US12612368B2 (Remedy Plan, Inc., priority 2019, dated 2026):
Where two headings read alike, the source gives them in different places.

Legend:
MV-4-11 cells = test: Cell viability in MV-4-11 cells (CellTiter Glo2); assay type: cell-based; settings: Homo sapiens, MV4-11, 96 h, 8-point dose response, 4 days
Procedure: Approximately 10,000 MV-4-11 cells per well of a 96-well plate were treated with DMSO (no drug control) or each compound in Tables E1 and E2 in an 8-point dose response for 4 days, Cell viability was measured using CellTiter Glo2. The ICse of each compound was determined using CDD Vault.

NAMPT = target: T1, NAMPT (Homo sapiens, UniProt P43490); test: NAMPT Activity Assay (Abcam #ab221819); assay type: biochemical; settings: purified NAMPT, two-step reaction, OD450 nm; percent inhibition vs no drug; compound concentration not stated
T1 construct: purchased Abcam ab221819
T1 sequence (P43490 whole entry): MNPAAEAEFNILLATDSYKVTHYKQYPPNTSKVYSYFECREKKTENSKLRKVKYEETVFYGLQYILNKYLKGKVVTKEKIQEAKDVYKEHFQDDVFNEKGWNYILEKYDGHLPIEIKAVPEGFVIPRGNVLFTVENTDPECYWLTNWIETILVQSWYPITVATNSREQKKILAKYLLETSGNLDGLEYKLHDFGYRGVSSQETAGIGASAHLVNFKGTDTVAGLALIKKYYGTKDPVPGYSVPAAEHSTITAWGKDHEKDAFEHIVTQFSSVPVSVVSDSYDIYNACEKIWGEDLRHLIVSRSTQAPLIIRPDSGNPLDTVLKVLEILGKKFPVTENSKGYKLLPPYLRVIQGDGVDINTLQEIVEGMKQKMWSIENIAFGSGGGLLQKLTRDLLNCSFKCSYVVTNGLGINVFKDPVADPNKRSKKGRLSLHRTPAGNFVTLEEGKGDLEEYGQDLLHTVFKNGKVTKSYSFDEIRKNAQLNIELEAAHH

[1] = CellTiter Glo2 (Table E2), read-out: MV-4-11 Cell Viability, MV-4-11 IC50
[2] = CellTiter Glo2 (Table E1), read-out: MV-4-11 IC50

SMILES | IC50 (MV-4-11 cells; [1]) | NAMPT Inhibition Code (NAMPT) | IC50 (MV-4-11 cells; [2])
CC(=O)N(CC(F)F)c1ccc(-c2ccc(C(=O)NCc3cccnc3)cn2)cc1C [Compound I-608, 6-[4-[Acetyl(2,2-difluoroethyl)amino]-3-methyl-phenyl]-N-(3-pyridylmethyl)pyridine-3-carboxamide] | 220 nM | B (B = ≥33 to <66% inhibition) | 
CCN(C(C)=O)c1ccc(-c2ccc(C(=O)NCc3cccnc3)cn2)cc1C [Compound I-430, 6-[4-[acetyl(ethyl)amino]-3-methyl-phenyl]-N-(3-pyridylmethyl)pyridine-3-carboxamide] |  | B (B = ≥33 to <66% inhibition) | 267 nM
CC(=O)N(c1ccc(-c2ccc(C(=O)NCc3cccnc3)cn2)cc1Cl)C(C)C [Compound I-596, 6-[4-[Acetyl(isopropyl)amino]-3-chloro-phenyl]-N-(3-pyridylmethyl)pyridine-3-carboxamide] | 2.39 nM | C (C = ≥66% inhibition) | 
CC(=O)N(c1ccc(-c2ccc(C(=O)NCc3cccnc3)cc2)cc1F)C(C)C [Compound I-630, 4-[4-[Acetyl(isopropyl)amino]-3-fluoro-phenyl]-N-(3-pyridylmethyl)benzamide] | 137 nM | C (C = ≥66% inhibition) | 
CCC(=O)Nc1ccc(-c2ccc(C(=O)NCc3cccnc3)cn2)cc1 [Compound I-354, 6-[4-(propanoylamino)phenyl]-N-(3-pyridylmethyl)pyridine-3-carboxamide] |  | A (A = <33% inhibition) | > 30000 nM
CC(=O)N(CC(C)C)c1ccc(-c2ccc(C(=O)NCc3cccnc3)cn2)cc1 [Compound I-404] |  | B (B = ≥33 to <66% inhibition) | 32 nM
CC(=O)N(CC(C)C)c1ccc(-c2ccc(C(=O)NCc3cccnc3C)cn2)cc1Cl [Compound I-459, 6-[4-[acetyl(isobutyl)amino]-3-chloro-phenyl]-N-[(2-methyl-3-pyridyl)methyl]pyridine-3-carboxamide] | 1510 nM | A (A = <33% inhibition) | 
CC(=O)N(CC1CC1)c1ccc(-c2ccc(C(=O)Nc3ccn4ccnc4c3)cn2)cc1Cl [Compound I-687, 6-[4-[Acetyl(cyclopropylmethyl)amino]-3-chloro-phenyl]-N-imidazo[1,2-a]pyridin-7-yl-pyridine-3-carboxamide] | 261 nM | A (A = <33% inhibition) | 
CC(=O)N(CC(C)C)c1ccc(-c2ccc(C(=O)NCc3cccnc3)cn2)cc1C [Compound I-594, 6-[4-[Acetyl(isobutyl)amino]-3-methyl-phenyl]-N-(3-pyridylmethyl)pyridine-3-carboxamide] | < 6.64 nM | C (C = ≥66% inhibition) | 
CCC(=O)N(C)c1ccc(-c2ccc(C(=O)NCc3cccnc3)cn2)cc1 [Compound I-331, 6-[4-[Methyl(propanoyl)amino]phenyl]-N-(3-pyridylmethyl)pyridine-3-carboxamide] | 436 nM | A (A = <33% inhibition) | 
CCN(C(C)=O)c1ccc(-c2ccc(C(=O)NCc3cccnc3)cn2)cc1Cl [Compound I-652, 6-[4-[Acetyl(ethyl)amino]-3-chloro-phenyl]-N-(3-pyridylmethyl)pyridine-3-carboxamide] | 92.4 nM | C (C = ≥66% inhibition) | 
CC(=O)N(C)c1ccc(-c2ccc(C(=O)NCc3cccnc3)cn2)cc1C(F)(F)F [Compound I-658, 6-[4-[Acetyl(methyl)amino]-3-(trifluoromethyl)phenyl]-N-(3-pyridylmethyl)pyridine-3-carboxamide] | 150 nM | B (B = ≥33 to <66% inhibition) | 
CC(=O)N(CC(F)F)c1ccc(-c2ccc(C(=O)NCc3cccnc3C)cn2)cc1 [Compound I-449, 6-[4-[acetyl(2,2-difluoroethyl)amino]phenyl]-N-[(2-methyl-3-pyridyl)methyl]pyridine-3-carboxamide] | 5180 nM | A (A = <33% inhibition) | 
Cc1cc(-c2ccc(C(=O)NCc3cccnc3)cn2)ccc1N(C(=O)C(F)F)C(C)C [Compound I-595, 6-[4-[(2,2-Difluoroacetyl)-isopropyl-amino]-3-methyl-phenyl]-N-(3-pyridylmethyl)pyridine-3-carboxamide] | 4.53 nM | C (C = ≥66% inhibition) | 
CC(=O)N(CCC(F)(F)F)c1ccc(-c2ccc(C(=O)NCc3cccnc3)cn2)cc1 [Compound I-482, 6-[4-[Acetyl(3,3,3-trifluoropropyl)amino]phenyl]-N-(3-pyridylmethyl)pyridine-3-carboxamide] | 226 nM | B (B = ≥33 to <66% inhibition) | 
CC(C)CN(CC(C)C)c1ccc(-c2ccc(C(=O)NCc3cccnc3)cc2)cc1 [Compound I-406, 4-[4-(diisobutylamino)phenyl]-N-(3-pyridylmethyl)benzamide] |  | B (B = ≥33 to <66% inhibition) | 817 nM
CC(=O)N(C)c1ccc(-c2ccc(C(=O)NCc3cccnc3)cn2)cc1C#N [Compound I-663, 6-[4-[Acetyl(methyl)amino]-3-cyano-phenyl]-N-(3-pyridylmethyl)pyridine-3-carboxamide] | 1700 nM | B (B = ≥33 to <66% inhibition) | 
CC(=O)N(CCC(F)(F)F)c1ccc(-c2ccc(C(=O)NCc3cccnc3C)cn2)cc1 [Compound I-499, 6-[4-[Acetyl(3,3,3-trifluoropropyl)amino]phenyl]-N-[(2-methyl-3-pyridyl)methyl]pyridine-3-carboxamide] | 3990 nM | A (A = <33% inhibition) | 
CC(=O)N(CC1COC1)c1ccc(-c2ccc(C(=O)NCc3cccnc3)cn2)cc1 [Compound I-447, 6-[4-[acetyl(oxetan-3-ylmethyl)amino]phenyl]-N-(3-pyridylmethyl)pyridine-3-carboxamide] | 493 nM | A (A = <33% inhibition) | 
CC(=O)N(CC1CC1)c1ccc(-c2ccc(C(=O)NCc3cccnc3)cn2)cc1C [Compound I-609, 6-[4-[Acetyl(cyclopropylmethyl)amino]-3-methyl-phenyl]-N-(3-pyridylmethyl)pyridine-3-carboxamide] | 13.5 nM | C (C = ≥66% inhibition) | 
CCOC(=O)N(C)c1ccc(-c2ccc(C(=O)NCc3cccnc3)nc2)cc1 [Compound I-330, ethyl N-methyl-N-[4-[6-(3-pyridylmethylcarbamoyl)-3-pyridyl]phenyl]carbamate] |  | A (A = <33% inhibition) | 6080 nM
CC(=O)N(CC1CC1)c1ccc(-c2ccc(C(=O)NCc3ccc4nccn4c3)cn2)cc1Cl [Compound I-679, 6-[4-[Acetyl(cyclopropylmethyl)amino]-3-chloro-phenyl]-N-(imidazo[1,2-a]pyridin-6-ylmethyl)pyridine-3-carboxamide] | 0.566 nM | C (C = ≥66% inhibition) | 
CC(=O)N(CC1CC1)c1ccc(-c2ccc(C(=O)NCc3ccncc3)cn2)cc1Cl [Compound I-676, 6-[4-[Acetyl(cyclopropylmethyl)amino]-3-chloro-phenyl]-N-(4-pyridylmethyl)pyridine-3-carboxamide] | > 997 nM | A (A = <33% inhibition) | 
